Data on 10 compounds can be found in PubChem BioAssay (NCI).

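Cultured in 96-well plates, cells were exposed to test compound for 48 hours across five concentrations. The concentration for full growth arrest is given as TGI.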

Among the test systems are MALME-3M melanoma; HCT-116 colon; CCRF-CEM leukemia; OVCAR-4 ovarian; SNB-19 CNS; SNB-75 CNS; HCT-15 colon; OVCAR-3 ovarian; UO-31 renal; HL-60(TB) leukemia; MCF7 breast; ACHN renal; EKVX NSCLC; U251 CNS.
What all share (test): DTP human tumour cell line panel, 48 h

In general, TGI refers to the concentration giving total growth inhibition. A high value points to lower sensitivity of the cells. Consider `O=C(c1c(F)c(F)c(F)c(F)c1F)n1c(=O)[nH]c2ccccc21`, for which the concentration for total growth inhibition (TGI) in the assay with MALME-3M melanoma came to 28.5 µM; with HCT-116 colon it was 12.2 µM; in the assay on CCRF-CEM leukemia it was 18.8 µM; in the assay on OVCAR-4 ovarian, 31.8 µM; in the assay with SNB-19 CNS it was 28.2 µM; in the assay with SNB-75 CNS it was 30.5 µM. The TGI in the assay with HCT-15 colon was found to be 15.6 µM; in the assay on OVCAR-3 ovarian, 24 µM; with UO-31 renal it was 25.2 µM; in the assay on HL-60(TB) leukemia it was 5.05 µM; in the assay with MCF7 breast, 16.8 µM; with ACHN renal, 29.7 µM. The figures for the TGI in the assay on EKVX NSCLC and in the assay on U251 CNS were 29.3 µM and 25.5 µM, respectively.

Take `CCOC(=O)c1nc2cc(F)c(F)cc2nc1NCc1cc(OC)c(OC)c(OC)c1`: the TGI in the assay with MALME-3M melanoma, with HCT-116 colon, with CCRF-CEM leukemia, with OVCAR-4 ovarian, in the assay on SNB-19 CNS and with SNB-75 CNS was more than 100 µM throughout. Further, the TGI with HCT-15 colon, in the assay with OVCAR-3 ovarian, in the assay with UO-31 renal, with HL-60(TB) leukemia, with MCF7 breast and in the assay on ACHN renal was more than 100 µM each time. The TGI in the assay with EKVX NSCLC and in the assay on U251 CNS was more than 100 µM each time.

Consider `Cc1cccc2c1CC(C1OC(=O)c3c(C)cccc31)C2=O` (stereo not given), for which the TGI with MALME-3M melanoma, in the assay with HCT-116 colon, in the assay on CCRF-CEM leukemia, in the assay on OVCAR-4 ovarian, in the assay on SNB-19 CNS and with SNB-75 CNS was more than 100 µM throughout. Moreover, the TGI with HCT-15 colon, with OVCAR-3 ovarian, with UO-31 renal, with HL-60(TB) leukemia, in the assay with MCF7 breast and in the assay on ACHN renal was more than 100 µM in each case. In addition, the TGI in the assay with EKVX NSCLC and in the assay on U251 CNS was more than 100 µM throughout.

As for `CC(=O)O[C@H]1CC[C@@]2(C)C(=CC[C@H]3[C@@H]4C[C@H](N5CCN(C)CC5)[C@H](OC(C)=O)[C@@]4(C)CC[C@@H]32)C1`, the TGI in the assay with MALME-3M melanoma came to 24.8 µM; in the assay on HCT-116 colon, 25.7 µM; in the assay on CCRF-CEM leukemia, 16 µM; in the assay on OVCAR-4 ovarian, 32.6 µM; in the assay on SNB-19 CNS, 58.9 µM; in the assay on SNB-75 CNS, 62.6 µM. Further, the TGI was 26.6 µM in the assay on HCT-15 colon; 21.5 µM with OVCAR-3 ovarian; more than 90.9 µM in the assay with UO-31 renal; 6.9 µM in the assay on HL-60(TB) leukemia; 15.3 µM in the assay on MCF7 breast; more than 100 µM in the assay with ACHN renal. Further, the TGI in the assay with EKVX NSCLC was 59.9 µM; in the assay on U251 CNS, 40.5 µM.

`Cc1cc(Cl)ccc1NC(=O)/C(Cc1nc2ccc(C(=O)c3ccccc3)cc2[nH]c1=O)=N/NC(=O)c1ccncc1`: the TGI in the assay with MALME-3M melanoma, in the assay with HCT-116 colon, in the assay on CCRF-CEM leukemia, with OVCAR-4 ovarian, in the assay with SNB-19 CNS and with SNB-75 CNS was more than 100 µM in each case. Moreover, the TGI in the assay on HCT-15 colon, with OVCAR-3 ovarian, in the assay with UO-31 renal, in the assay on HL-60(TB) leukemia, with MCF7 breast and with ACHN renal was more than 100 µM throughout. The TGI in the assay on EKVX NSCLC and in the assay with U251 CNS was more than 100 µM throughout.

Take `N/C(=N\Nc1cccc(Cl)c1)c1cccnc1`: the TGI in the assay on MALME-3M melanoma is more than 100 µM; with HCT-116 colon, more than 100 µM; in the assay with CCRF-CEM leukemia, more than 100 µM; in the assay with OVCAR-4 ovarian, more than 100 µM; in the assay on SNB-19 CNS, more than 100 µM; with SNB-75 CNS, 99.7 µM. Besides, the TGI was more than 100 µM in the assay with HCT-15 colon; more than 86.3 µM with OVCAR-3 ovarian; more than 55.7 µM with UO-31 renal; more than 66.9 µM with HL-60(TB) leukemia; more than 100 µM in the assay on MCF7 breast; more than 100 µM in the assay with ACHN renal. Further, the TGI in the assay with EKVX NSCLC and with U251 CNS was more than 100 µM throughout.

On to `Nc1ccc2c(c1)N(C(=O)CCCC(=O)N1CC(CCl)c3ccc(N)cc31)CC2CCl` (stereo not given), for which the TGI is 0.451 µM in the assay with MALME-3M melanoma; more than 50 µM with HCT-116 colon; more than 20.1 µM in the assay on CCRF-CEM leukemia; more than 11.1 µM in the assay on OVCAR-4 ovarian; 11.3 µM in the assay with SNB-19 CNS; 2.87 µM with SNB-75 CNS. Further, the TGI in the assay on HCT-15 colon was more than 14.6 µM; with OVCAR-3 ovarian, more than 50 µM; with UO-31 renal it was 2.74 µM; in the assay with HL-60(TB) leukemia, 0.907 µM; with MCF7 breast it was 12.9 µM; in the assay with ACHN renal it was more than 41 µM. Besides, the TGI is 7.8 µM in the assay on EKVX NSCLC and more than 26.2 µM with U251 CNS.

In the case of `CN(C)c1ccc(/C=C(\NC(=O)c2ccccc2)c2nc3ccccc3c(=O)o2)cc1`, the TGI in the assay with MALME-3M melanoma, in the assay with HCT-116 colon, in the assay with CCRF-CEM leukemia, in the assay with OVCAR-4 ovarian, in the assay on SNB-19 CNS and in the assay on SNB-75 CNS was more than 100 µM throughout. Also, the total growth inhibition concentration (TGI) in the assay with HCT-15 colon, in the assay on OVCAR-3 ovarian, with UO-31 renal, with HL-60(TB) leukemia, in the assay on MCF7 breast and in the assay on ACHN renal was more than 100 µM each time. Besides, the TGI with EKVX NSCLC and with U251 CNS was more than 100 µM in each case.

As to `CCCCCCCCCCCCOCCCCCCCCC/C=C/c1ccc2c(c1)OCCOCCOCCOCCO2`, the TGI in the assay with MALME-3M melanoma is 66.8 µM; with HCT-116 colon, 29.5 µM; in the assay on CCRF-CEM leukemia, more than 100 µM; with OVCAR-4 ovarian, 45.1 µM; with SNB-19 CNS, 77.6 µM; in the assay on SNB-75 CNS, 33.4 µM. For the same compound, the TGI in the assay with HCT-15 colon was more than 100 µM; in the assay on OVCAR-3 ovarian it was 40.6 µM; in the assay on UO-31 renal it was 39.4 µM; with HL-60(TB) leukemia, more than 100 µM; with MCF7 breast, 32 µM; in the assay on ACHN renal, 43.1 µM. Moreover, the TGI in the assay with EKVX NSCLC was 61.6 µM; in the assay on U251 CNS it was 40.6 µM.

On to `Nc1nc([O-])c([I+]c2ccccc2)c(=O)[nH]1`, for which the TGI with MALME-3M melanoma, in the assay on HCT-116 colon, in the assay on CCRF-CEM leukemia, in the assay on OVCAR-4 ovarian, with SNB-19 CNS and in the assay on SNB-75 CNS was more than 100 µM each time. The TGI in the assay on HCT-15 colon, in the assay on OVCAR-3 ovarian, with UO-31 renal, in the assay on HL-60(TB) leukemia, in the assay with MCF7 breast and in the assay with ACHN renal was more than 100 µM throughout. In addition, the TGI in the assay on EKVX NSCLC and in the assay on U251 CNS was more than 100 µM in each case.
